pIC50: −log10 of the molar value. Like-named read-outs stand apart in the source and are kept apart here.
Legend:
HIV-1 (strain IIIB) = assay: MT4 cell assay: antiviral HIV activity (HIV-induced cytopathic effect); format: cell-based; settings: Human immunodeficiency virus 1, IIIB, control and standard, propidium iodide readout, tested 0.01 to 1 μM in every assay, read-out: expected range of IC50 values
Protocol: Antiviral HIV activity and compound-induced cytotoxicity were measured in parallel by means of a propidium iodide based procedure in the human T-cell lymphotropic virus transformed cell line MT4. Aliquots of the test compounds were serially diluted in medium (RPMI 1640, 10% fetal calf serum (FCS), and gentamycin) in 96-well plates (Costar 3598) using a Cetus Pro/Pette. Exponentially growing MT4 cells were harvested and centrifuged at 1000 rpm for 10 min in a Jouan centrifuge (model CR 4 12). Cell pellets were resuspended in fresh medium (RPMI 1640, 20% FCS, 20% IL-2, and gentamycin) to a density of 5×10^5 cells/ml. Cell aliquots were infected by the addition of HIV-1 (strain IIIB) diluted to give a viral multiplicity of infection of 100×TCID50. […]
For propidium iodide readout, 27 μl of 5% Nonidet-40 was added to each well of the incubation plate. […] The plates were analyzed in an automated assay instrument (Screen Machine, Idexx Laboratories). […]
For MTS readout, 20 μl CellTiter 96 AQ One Solution reagent (Promega #G3582) was added to each well. At 75 minutes following the addition of MTS reagent, absorbance was read at […] using a Tecan Sunrise 96-well plate reader. […]
For each assay plate, the results (relative fluorescence units, rfU, or OD values) of wells containing uninfected cells or infected cells with no compound were averaged, respectively. […]

Pseudotyped HIV vector = Pseudotyped HIV vector expressing luciferase reporter assay; format: cell-based
Protocol: Pseudotyped HIV Vector Expressing Luciferase Reporter Assay
Expression of luciferase reporter following viral integration was performed essentially as described in Jármy, G. et al., J. Medical Virology, 64:223-231, 2001.

Row | Structure (SMILES) | pIC50 (Pseudotyped HIV vector; Human immunodeficiency virus 1) | other results
1 | Cc1cn([C@H]2C[C@H](N=[N+]=[N-])[C@@H](CO)O2)c(=O)[nH]c1=O [3′-azido-3′-deoxythymidine] |  | pIC50 (HIV-1 (strain IIIB)): 6.92 to 7.40
2 | CCn1c(=O)c(C(=O)N[C@@H](C)CO)c(O)c2ncc(Cc3ccc(F)cc3)cc21 [Example 124, Sodium 1-ethyl-7-[(4-fluorophenyl)methyl]-3-({[(1S)-2-hydroxy-1-methylethyl]amino}carbonyl)-2-oxo-1,2-dihydro-1,5-naphthyridin-4-olate] | > 8.00 | 
3 | COCCNC(=O)c1c(O)c2ncc(Cc3ccc(F)cc3)cc2n(CC(N)=O)c1=O [Example 162, 1-(2-Amino-2-oxoethyl)-7-[(4-fluorophenyl)methyl]-4-hydroxy-N-[2-(methyloxy)ethyl]-2-oxo-1,2-dihydro-1,5-naphthyridine-3-carboxamide] | > 8.00 | 
4 | O=C(NCCO)c1c(O)c2ncc(Cc3ccc(F)cc3)cc2n(-c2ccc(F)cc2)c1=O [Example 200, 1-(4-Fluorophenyl)-7-[(4-fluorophenyl)methyl]-4-hydroxy-N-(2-hydroxyethyl)-2-oxo-1,2-dihydro-1,5-naphthyridine-3-carboxamide] | > 8.00 | 
5 | CNC(=O)c1c(O)c2ncc(Cc3ccc(F)cc3)cc2n(CC(=O)N(C)C)c1=O [Example 237, 1-[2-(Dimethylamino)-2-oxoethyl]-7-(4-fluorobenzyl)-4-hydroxy-N-methyl-2-oxo-1,2-dihydro-1,5-naphthyridine-3-carboxamide] | > 8.00 | 
6 | C[C@H](O)CNC(=O)c1c(O)c2ncc(Cc3ccc(F)cc3)cc2n(CCN2CCCC2=O)c1=O [Example 428, 7-(4-Fluorobenzyl)-4-hydroxy-N-[(2S)-2-hydroxypropyl]-2-oxo-1-[2-(2-oxopyrrolidin-1-yl)ethyl]-2-dihydro-1,5-naphthyridine-3-carboxamide] |  | pIC50 (Pseudotyped HIV vector; luciferase reporter following viral integration, read-out: IC50): > 8.00
7 | C[C@@H](O)CNC(=O)c1c(O)c2ncc(Cc3ccc(F)cc3)cc2n(CCN2CCCC2=O)c1=O [Example 429, 7-(4-Fluorobenzyl)-4-hydroxy-N-[(2R)-2-hydroxypropyl]-2-oxo-1-[2-(2-oxopyrrolidin-1-yl)ethyl]-1,2-dihydro-1,5-naphthyridine-3-carboxamide] | > 8.00 | 
8 | CNC(=O)Cn1c(=O)c(C(=O)NCCOC)c(O)c2ncc(Cc3ccc(F)cc3)cc21 [Example 465, 7-[(4-Fluorophenyl)methyl]-4-hydroxy-1-[2-(methylamino)-2-oxoethyl]-N-[2-(methyloxy)ethyl]-2-oxo-1,2-dihydro-1,5-naphthyridine-3-carboxamide] | > 8.00 | 
9 | COCCNC(=O)c1c(O)c2ncc(Cc3ccc(F)cc3)cc2n(Cc2nccn2C)c1=O [Example 467, 7-[(4-Fluorophenyl)methyl]-4-hydroxy-1-[(1-methyl-1H-imidazol-2-yl)methyl]-N-[2-(methyloxy)ethyl]-2-oxo-1,2-dihydro-1,5-naphthyridine-3-carboxamide] | > 8.00 | 
10 | Cn1c(=O)c(C(=O)NC[C@@H](O)CO)c(O)c2ncc(Cc3ccc(F)cc3)cc21 [Example 516, N-[(2R)-2,3-Dihydroxypropyl]-7-[(4-fluorophenyl)methyl]-4-hydroxy-1-methyl-2-oxo-1,2-dihydro-1,5-naphthyridine-3-carboxamide] | > 8.00 | 
11 | CCN(CC)CCNC(=O)c1c(O)c2ncc(Cc3ccccc3)cc2[nH]c1=O [N-[2-(Diethylamino)ethyl]-4-hydroxy-2-oxo-7-(phenylmethyl)-1,2-dihydro-1,5-naphthyridine-3-carboxamide, reference compound] | < 6.82 | 
